Results as given in publication PMC12707061 (National Science Review, 2025).

What was measured:
mPFC VIP neurons [1] = assay: Patch-clamp recordings of mPFC VIP neurons in slices after in vivo drug injection; design: species or system mice; settings: for resting membrane potential (RMP) of VIP neurons, average: saline controls −58.8 mV
Description: The brain was removed quickly after decapitation and immediately put into ice-cold oxygenated NMDG ACSF. A few minutes later, coronal slices containing the mPFC (300 μm thickness for mice) were sectioned in cold ACSF using a vibratome (VT1200 S, Leica) and then transferred into oxygenated NMDG ACSF at 32°C for incubation and recovery for 10–15 min. […] All chemicals were purchased from Sigma–Aldrich (St. Louis, MO, USA).
(§1) All drugs were dissolved in 0.9% saline and administered by intraperitoneal (i.p.) injection.
For in intro brain slices recording, AAV-Ef1α-DIO-mCherry virus was injected in the mPFC for labeling VIP neurons, and a 26-gauge double guide cannula (center-to-center distance 0.80 mm; RWD, China) was subsequently implanted in the same site of Vip-Cre mice.
For mPFC VIP neuron recordings, brain slices were transferred into the recording chamber filled with ACSF. VIP positive neurons were visualized with differential interference contrast optics (DIC, Olympus BX61WI). The recording pipettes (4-5 MΩ) were pulled with a micropipette puller (P97, Sutter Instrument; USA). […] When the whole-cell record was formed, to record the neuronal firing, the neurons were held at I=0 pA under current-clamp mode; to measure the intrinsic membrane properties, the same neurons were held at […] and spikes were induced by increases of current injection (each step was 5 pA, range –10-45 pA). All recordings were performed for 5 minutes typically.
The specific operation is as follows: using the Threshold search function in the Clampfit software Event Detection, setting the baseline and threshold for identifying the action potential, and then automatically identifying and measuring each action potential. The curve of firing was plotted using MATLAB. All events, including the spike numbers, were finally verified by eye.

mice [2] = assay: TST, FST and OFT in mice with ketamine and pre-treatments; settings: for locomotion and anxiety-like behaviors during the OFT: 1 h after injection; for effect of pre-treatment on ketamine's decrease of immobility in TST and FST: p-CPA i.p. once per day for 3 days, palonosetron into mPFC 0.5 h before ketamine
Description: Behavioral experiments were performed after 3-4 weeks of viral expression.
For behavioral experiments, C57BL/6 mice were recovered for at least 7 days before behavioral testing. Before micro-infusions, a 26-gauge internal injector with 3 mm projection was placed into the guide cannula, connected via PE tubing to a Hamilton micro-syringe driven by hand. […] The injector cannula was removed 3 min after infusion was finished, and corresponding behavioral tests were performed.
The mice were suspended in a computerized device allowing four animals to be recorded at one time, and were separated in a chamber, both acoustically and visually isolated. To ensure mice could not contact or climb with other things, an individual mouse was suspended 50 cm above the floor by a tail tape that was placed approximately 1 cm from the tip of the tail. The activities of the animals were recorded for 6 minutes by a video recorder. The total duration of immobility at the last 4 minutes of testing time was analyzed by one who was blinded to the test.
The FST apparatus was a clear glass tank (40 cm high and 20 cm in diameter) filled with water (25-26 °C), and the water depth was set to ensure mice could not touch the bottom with their tails or hind limbs. Mice were placed individually into the apparatus and allowed to swim for 6 minutes. The mice were considered immobile when floating in the water without struggling and making only those movements necessary to keep their heads above the water. Total immobility times during the last 4 minutes of the 6-minute testing period were analyzed by a researcher blinded to the test.
Mice were placed in a white open field chamber (38 x 38 x 40 cm) built by an acrylic plate in a room with dim light. The movement of each animal was tracked by a video camera positioned directly above the chamber (Jiliang, Shanghai). Time spent in the center zone of the chamber was a measure of anxiety behavior. Mice were allowed to move freely for 5 minutes in the arena. Total distance and center zone time were automatically analyzed by software (Jiliang, Shanghai).

mPFC VIP neurons [3] = assay: Whole-cell recordings of mPFC VIP neurons with bath application of drugs to brain slices; assay type: cell-based, mice; settings: for activation (firing) of VIP neurons: bath application, 5-HT 5 μM, AP5 100 μM, slices from normal mice
Description: Adult (10–16 weeks old) VIP-Cre-expressing mCherry mice with or without a cannula were firstly anesthetized by being injected intraperitoneally with tribromoethanol (250 mg/kg) and then perfused transcardially with 20 mL of ice-cold N-methyl-D-glucamine (NMDG) artificial cerebrospinal fluid (ACSF) solution (oxygenated with 5% CO2 + 95% O2) containing (mM): 93 NMDG, 93 HCl, 2.5 KCl, 10 MgSO4·7H2O, 1.2 NaH2PO4·2H2O, 30 NaHCO3, 25 glucose, 20 HEPES, 5 sodium ascorbate, 3 sodium pyruvate and 2 thioureas, with 0.5 CaCl2·2H2O added (pH: 7.35, 303 mOsm). The brain was removed quickly after decapitation and immediately put into ice-cold oxygenated NMDG ACSF. A few minutes later, coronal slices containing the mPFC (300 μm thickness for mice) were sectioned in cold ACSF using a vibratome (VT1200 S, Leica) and then transferred into oxygenated NMDG ACSF at 32°C for incubation and recovery for 10–15 min. The brain slices were transferred to a normal oxygenated ACSF solution (126 mM NaCl, 2.5 mM KCl, 2 mM MgSO4·7H2O, 1.25 mM NaH2PO4·2H2O, 25 mM NaHCO3, 10 mM glucose, 2 mM CaCl2) at room temperature for 1 h. All chemicals were purchased from Sigma–Aldrich (St. Louis, MO, USA).
For mPFC VIP neuron recordings, brain slices were transferred into the recording chamber filled with ACSF. VIP positive neurons were visualized with differential interference contrast optics (DIC, Olympus BX61WI). The recording pipettes (4-5 MΩ) were pulled with a micropipette puller (P97, Sutter Instrument; USA). For whole-cell patch-clamp recording, the pipette was filled with an internal solution containing (mM) 133 potassium gluconate, 18 NaCl, 0.6 EGTA, 2 Mg·ATP, 0.3 Na3·GTP, 10 Hepes (pH: 7.20, 280-290 mOsm). […]
To investigate the underlying synergistic effects of 5-HT (5 μM, Sigma) and AP5 (100 μM, Sigma) on neuronal excitability and firing, the two drugs were alone or together continuously perfused into the recording chamber using a medicine delivery pipe after a baseline was recorded for 5 min. The spikes were recorded under […] 1 minute after the drugs were delivered. […]

[4] = system: mPFC VIP neurons expressing the hM4Di receptor; assay: Cell-attached recording of hM4Di-expressing mPFC VIP neurons in brain slices; assay type: cell-based, mice; settings: 10 μM
Description: In the chemogenetic inhibition assay, we injected the AAV-DIO-hM4Di-mCherry vector into the bilateral mPFC of VIP-Cre mice. […] Behavioral experiments were performed after mice had been allowed to recover for 3 weeks after viral injection (Fig. 5A).

mice [5] = assay: MK-801 alone and with fluoxetine: behavioural tests 24 h after injection; assay type: in vivo; settings: single injection, alone
Description: as §1

SST neurons in the mPFC = assay: Activation/excitability of mPFC SST neurons after ketamine (c-Fos, patch-clamp); assay type: in vivo, mice; settings: after ketamine injection
Description: (§2) VIP, parvalbumin (PV) and somatostatin (SST) neurons are the three main types of gamma-aminobutyric acid (GABA)ergic interneurons in the mPFC [63].
(§3) All mice were deeply anesthetized with an overdose of pentobarbital and then transcardially perfused with 0.9% saline solution followed by 4% paraformaldehyde (PFA) in PBS. After 24 h of post-fixation in 4% PFA overnight at 4 °C, brains were subsequently immersed in a 30% sucrose solution for dehydration for 24-48 h. Brains were sectioned coronally at a thickness of 40 μm with a Vibration Microtome (Leica VT1200S). Coronal brain sections were washed in PBS, blocking solution containing 0.5% Triton X-100 and 5% normal bovine serum albumin was dissolved in 1x PBS. After blocking for 1-2 h and washing, brain sections were incubated with the primary antibody rabbit polyclonal anti-c-Fos (1:1000, Synaptic system) for 48 h at 4 °C. After washing, these brain sections were incubated with secondary antibody Alexa Fluor 594-conjugated donkey anti-rabbit IgG (1:1000, Jackson ImmunoResearch) at […]. Cell nuclei were identified using the 4, 6-diamidino-2-phenylindole (DAPI) stain (1:10000, Jackson ImmunoResearch). Imaging was carried out with a digital slide scanner (Olympus, VS120-S6-W) and a confocal microscope (Nikon, Ti-E+A1R SI).

VIP neurons in the mPFC = assay: c-Fos immunolabeling of mPFC VIP neurons after ketamine; assay type: in vivo, mice; settings: antidepressant dose; 1.5 h after injection; average
Description: as §2, §3

PV neurons in the mPFC = assay: Activation/excitability of mPFC PV neurons after ketamine (c-Fos, patch-clamp); assay type: in vivo, mice; settings: after ketamine injection
Description: as §2, §3

[6] = system: 5-HT neurons in the dorsal raphe nucleus (DRN); assay: c-Fos activation of DRN 5-HT neurons after ketamine; assay type: in vivo, mice; settings: after ketamine injection
Description: as §3

mPFC 5-HT = assay: In vivo real-time microdialysis of mPFC 5-HT; design: species or system mice; settings: i.p. 10 mg/kg; during the 15 min after injection; baseline ∼100%
[7] = palonosetron into mPFC before ketamine

NC(Cc1ccc(Cl)cc1)C(=O)O (racemic) [p-CPA, 4-chloro-DL-phenylalanine]
number of spikes in response to depolarizing current pulses (mPFC VIP neurons [1]; 1 h after injection): decreased | resting membrane potential (RMP) of VIP neurons, average (mPFC VIP neurons [1]; 1 h after injection): −69.7 mV | locomotion and anxiety-like behaviors during the OFT (mice [2]): did not affect locomotion or cause anxiety-like behaviors | effect of pre-treatment on ketamine's decrease of immobility in TST and FST (mice [2]): attenuated the ketamine-related decrease in the duration of immobility

NCCc1c[nH]c2ccc(O)cc12 [5-HT, serotonin]
activation (firing) of VIP neurons (mPFC VIP neurons [3]): did not activate VIP neurons

NC(CCCP(=O)(O)O)C(=O)O (centres unmarked) [AP5]
resting membrane potential (RMP) of VIP neurons, average (mPFC VIP neurons [1]; 1 h after injection): –65.1 mV | activation (firing) of VIP neurons (mPFC VIP neurons [3]): did not activate VIP neurons

C[N+]1([O-])CCN(C2=Nc3cc(Cl)ccc3Nc3ccccc32)CC1 [CNO, clozapine N-oxide]
mPFC VIP neuron activity in brain slices [4]: significantly inhibited

C[C@]12N[C@H](Cc3ccccc31)c1ccccc12 [MK-801]
antidepressant effects after 24 h (mice [5]): does not result in antidepressant effects

CNCCC(Oc1ccc(C(F)(F)F)cc1)c1ccccc1 (centres unmarked) [fluoxetine]
antidepressant effects after 24 h (mice [5]): does not result in antidepressant effects

CNC1(c2ccccc2Cl)CCCCC1=O (centres unmarked) [ketamine]
number of spikes in response to depolarizing current pulses (mPFC VIP neurons [1]; 1 h after injection): remarkable increase | percentage of firing VIP neurons (mPFC VIP neurons [1]; 1 h after injection, ketamine 10 mg/kg i.p., p-CPA 150 mg/kg once daily 3 days, AP5 40 nmol mPFC, fluoxetine 10 mg/kg i.p.): 75% | resting membrane potential (RMP) of VIP neurons, average (mPFC VIP neurons [1]; 1 h after injection): −44.2 mV | membrane capacitance of VIP neurons (mPFC VIP neurons [1]; firing neurons after ketamine): no change in membrane capacitance | changes in electrophysiological characteristics of excitability of SST neurons (SST neurons in the mPFC): neither PV nor SST neurons showed any changes | VIP neurons activated (c-Fos+ among VIP neurons) (VIP neurons in the mPFC): 38.8% | changes in electrophysiological characteristics of excitability of PV neurons (PV neurons in the mPFC): neither PV nor SST neurons showed any changes | activation of DRN 5-HT neurons [6]: did not activate

CC12CC3CC(C)(C1)CC(N)(C3)C2 [memantine]
average relative-to-baseline 5-HT levels in the mPFC (mPFC 5-HT): did not show such an effect

O=C1c2cccc3c2[C@H](CCC3)CN1[C@@H]1CN2CCC1CC2 [palonosetron]
percentage of firing VIP neurons (mPFC VIP neurons [1]; palonosetron into mPFC 0.5 h before ketamine i.p., controls ∼10.5%): ~10% | change in RMP of VIP neurons (mPFC VIP neurons [1]; [7]): no change in the RMP | change in membrane capacitance of VIP neurons (mPFC VIP neurons [1]; [7]): moderate increase in membrane capacitance | change in membrane resistance of VIP neurons (mPFC VIP neurons [1]; [7]): no change in membrane resistance | effect on VIP neuron activation by 5-HT combined with AP5 (mPFC VIP neurons [3]; palonosetron 10 μM): blocked the effect of 5-HT combined with AP5 | locomotion and anxiety-like behaviors during the OFT (mice [2]): did not affect locomotion or cause anxiety-like behaviors | effect of pre-treatment on ketamine's decrease of immobility in TST and FST (mice [2]): this effect was blocked
